{"source": "paper PMC4113732", "about": "“Novel Preclinical and Radiopharmaceutical Aspects of [^68Ga]Ga-PSMA-HBED-CC: A New PET Tracer for Imaging of Prostate Cancer” (Pharmaceuticals, 2014)", "biological_target": "T1, prostate-specific membrane antigen (PSMA) (Homo sapiens, UniProt Q04609)", "T1 construct": "gene FOLH1", "T1 sequence (Q04609 whole entry)": "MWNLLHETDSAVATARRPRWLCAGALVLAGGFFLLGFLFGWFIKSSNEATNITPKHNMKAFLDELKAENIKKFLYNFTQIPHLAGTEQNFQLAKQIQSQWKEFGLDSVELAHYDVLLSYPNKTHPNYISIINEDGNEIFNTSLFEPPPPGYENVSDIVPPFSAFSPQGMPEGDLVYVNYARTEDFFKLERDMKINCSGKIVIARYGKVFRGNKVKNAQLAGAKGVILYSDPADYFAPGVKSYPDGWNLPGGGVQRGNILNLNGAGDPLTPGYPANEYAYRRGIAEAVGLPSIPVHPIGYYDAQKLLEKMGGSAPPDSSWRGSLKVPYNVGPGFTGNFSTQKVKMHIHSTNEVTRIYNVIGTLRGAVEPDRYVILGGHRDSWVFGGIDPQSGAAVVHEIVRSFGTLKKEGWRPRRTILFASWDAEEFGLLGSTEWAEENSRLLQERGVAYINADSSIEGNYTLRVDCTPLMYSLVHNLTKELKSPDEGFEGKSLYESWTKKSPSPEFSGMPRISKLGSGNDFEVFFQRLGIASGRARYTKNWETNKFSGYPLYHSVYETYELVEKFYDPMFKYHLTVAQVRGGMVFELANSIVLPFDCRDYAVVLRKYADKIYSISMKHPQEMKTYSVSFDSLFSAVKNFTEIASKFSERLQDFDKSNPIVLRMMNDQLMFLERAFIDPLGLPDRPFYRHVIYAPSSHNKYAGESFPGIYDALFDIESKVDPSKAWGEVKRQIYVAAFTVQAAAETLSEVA", "assay": "competitive radioligand binding on intact PSMA-expressing LNCaP cells against [^[…]]Ga-PSMA-HBED-CC", "type": "cell-based", "data": [{"smiles": "O=C(O)CCc1ccc2c(c1)CN1CCN(CC(=O)O)Cc3cc(CCC(=O)NCCCCCC(=O)NCCCC[C@H](NC(=O)N[C@@H](CCC(=O)O)C(=O)O)C(=O)O)ccc3[O][Ga]([O]C(=O)C1)[O]2", "note": "[[^natGa]Ga-PSMA-HBED-CC]", "values": [{"measurement": "IC50", "result": "24.8 ± 1.2", "unit": "nM"}]}]}
